# Reference: patent publication US11000033B2, “Ketone or oxime compound, and herbicide” (NISSAN CHEMICAL CORPORATION, priority 2014, dated 2021)
# Tests used:
# Assay type in all cases: in vivo
# Monochoria vaginalis [1] = test: Test Example 1: herbicidal activity, application before weed generation in submerged conditions (symbol C); details: application herbicide amount 320 g/ha
# Procedure, shortened: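 Weeds are sown into submerged alluvial soil alongside transplanted 2.5-leaf rice, and the compound, as an emulsion diluted to a set rate, is applied onto the water before emergence. Rating on the 0–5 herbicidal-ratio scale follows 3 weeks of greenhouse growth at 25–30 °C.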
# [2] = system: Echinochloa oryzacola Vasing.; test: Test Example 2: herbicidal activity, application during weed generation in submerged conditions (symbol A); details: Table 23; application herbicide amount 320 g/ha; grade 0-5 by criteria of Test Example 1
# Procedure, shortened: (§1)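 Steps: fill pots with alluvial soil; add water to 4 cm depth; co-sow the three weeds; grow at 25° C. to 30° C. under glass; at 1–2 leaves, dose the floodwater with diluted emulsion; rate damage visually after 3 weeks.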
# Scirpus juncoides = test: Test Example 2: herbicidal activity, application during weed generation in submerged conditions (symbol B); details: Table 23; application herbicide amount 320 g/ha; grade 0-5 by criteria of Test Example 1
# Procedure, shortened: as §1
# Monochoria vaginalis [3] = test: Test Example 2: herbicidal activity, application during weed generation in submerged conditions (symbol C); details: Table 23; application herbicide amount 320 g/ha; grade 0-5 by criteria of Test Example 1
# Procedure, shortened: as §1
# Digitaria ciliaris = test: Test Example 4: herbicidal effect by soil treatment (symbol F)
# Procedure, shortened: (§2)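 Seeds were sown in sterilized diluvial soil, covered with about 1.5 cm of soil, and the soil surface was sprayed with a water-diluted emulsion of the compound at a predetermined rate. Plants grew in a greenhouse at 25° C. to 30° C.; effects were scored visually 3 weeks after application.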
# [4] = system: Echinochloa crus-galli var. crus-galli; test: Test Example 4: herbicidal effect by soil treatment (symbol H)
# Procedure, shortened: as §2
# Avena fatua = test: Test Example 4: herbicidal effect by soil treatment (symbol I)
# Procedure, shortened: as §2
# Apera spica-venti = test: Test Example 4: herbicidal effect by soil treatment (symbol L)
# Procedure, shortened: as §2
# Abutilon theophrasti = test: Test Example 4: herbicidal effect by soil treatment (symbol M)
# Procedure, shortened: as §2
# Galium spurium = test: Test Example 4: herbicidal effect by soil treatment (symbol Q)
# Procedure, shortened: as §2
# corn [5] = test: Test Example 4: effect on crop by soil treatment (symbol c); details: for c: corn, effect on crop grade: application herbicide amount 320 g/ha; for c: corn, effect grade on crop: 320 g/ha
# Procedure, shortened: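 Steps: fill box with sterilized diluvial soil; sow seed spot-like; cover with ~1.5 cm soil; grow in greenhouse (25° C. to 30° C.).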
# rapeseed = test: Test Example 4: effect on crop by soil treatment (symbol g); details: for g: rapeseed, effect on crop grade: application herbicide amount 320 g/ha; for g: rapeseed, effect grade on crop: 320 g/ha
# Procedure, shortened: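 Greenhouse culture at 25° C. to 30° C. followed sowing of seed in spots on sterilized diluvial soil with a soil cover close to 1.5 cm thick.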
# Lolium multiflorum Lam. = test: Test Example 5: herbicidal effect by foliage application, plastic box (symbol K); details: 320 g/ha, 3 weeks after application
# Procedure, shortened: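 After sowing into sterilized diluvial soil and growing two weeks under glass at 25° C. to 30° C., seedlings receive a uniform foliar spray of diluted emulsion. Damage is judged visually three weeks on.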
# corn [6] = test: Test Example 5: effect on crop by foliage application, plastic box (symbol c); details: 320 g/ha, 3 weeks after application
# Procedure, shortened: (§3)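 Box culture: sterile diluvial soil, seeds spot-sown, ~1.5 cm cover, raised under glass at 25–30° C.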
# soybean = test: Test Example 5: effect on crop by foliage application, plastic box (symbol d); details: 320 g/ha, 3 weeks after application
# Procedure, shortened: as §3
# rice plant = test: Test Example 5: effect on crop by foliage application, plastic box (symbol b); details: 320 g/ha, 3 weeks after application
# Procedure, shortened: as §3
# [7] = application herbicide amount 320 g/ha
SMILES,"Herbicidal effect grade, C: Monochoria vaginalis (Monochoria vaginalis [1])","Herbicidal effect grade, A: Echinochloa oryzacola Vasing. [2]","Herbicidal effect grade, B: Scirpus juncoides (Scirpus juncoides)","Herbicidal effect grade, C: Monochoria vaginalis (Monochoria vaginalis [3])","F: Digitaria ciliaris, herbicidal effect grade (Digitaria ciliaris; [7])","H: Echinochloa crus-galli var. crus-galli, herbicidal effect grade [4, 7]","I: Avena fatua, herbicidal effect grade (Avena fatua; [7])","L: Apera spica-venti, herbicidal effect grade (Apera spica-venti; [7])","M: Abutilon theophrasti, herbicidal effect grade (Abutilon theophrasti; [7])","Q: Galium spurium, herbicidal effect grade (Galium spurium; [7])","c: corn, effect on crop grade (corn [5])","g: rapeseed, effect on crop grade (rapeseed)","K: Lolium multiflorum Lam., herbicidal effect grade (Lolium multiflorum Lam.)","c: corn, effect on crop grade (corn [6])","d: soybean, effect on crop grade (soybean)","b: directly sowed rice plant, effect on crop grade (rice plant)","F: Digitaria ciliaris, herbicidal effect grade (Digitaria ciliaris; 320 g/ha)","H: Echinochloa crus-galli var. crus-galli, herbicidal effect grade ([4]; 320 g/ha)","I: Avena fatua, herbicidal effect grade (Avena fatua; 320 g/ha)","L: Apera spica-venti, herbicidal effect grade (Apera spica-venti; 320 g/ha)",other results
CON=C(C)CC1CC(O)=C(c2c(C)cc(C#CCO)cc2C)C1=O (mixture of isomers) [6-025],0 (Herbicidal ratio of 5% or lower (almost no effect)),2 (Herbicidal ratio of 20% or higher and lower than 40%),0 (Herbicidal ratio of 5% or lower (almost no effect)),0 (Herbicidal ratio of 5% or lower (almost no effect)),3 (Herbicidal ratio of 40% or higher and lower than 70%),0 (Herbicidal ratio of 5% or lower (almost no effect)),2 (Herbicidal ratio of 20% or higher and lower than 40%),4 (Herbicidal ratio of 70% or higher and lower than 90%),0 (Herbicidal ratio of 5% or lower (almost no effect)),0 (Herbicidal ratio of 5% or lower (almost no effect)),0 (Herbicidal ratio of 5% or lower (almost no effect)),0 (Herbicidal ratio of 5% or lower (almost no effect)),5 (Herbicidal ratio of 90% or more (almost completely withered)),4 (Herbicidal ratio of 70% or higher and lower than 90%),0 (Herbicidal ratio of 5% or lower (almost no effect)),5 (Herbicidal ratio of 90% or more (almost completely withered)),–,–,–,–,–
CC(=O)C(C(C)=O)C1CC(O)=C(c2c(C)cc(C)cc2C)C1=O (stereo not shown) [2-002],0 (Herbicidal ratio of 5% or lower (almost no effect)),0 (Herbicidal ratio of 5% or lower (almost no effect)),0 (Herbicidal ratio of 5% or lower (almost no effect)),0 (Herbicidal ratio of 5% or lower (almost no effect)),–,–,–,–,–,–,–,–,5 (Herbicidal ratio of 90% or more (almost completely withered)),0 (Herbicidal ratio of 5% or lower (almost no effect)),0 (Herbicidal ratio of 5% or lower (almost no effect)),4 (Herbicidal ratio of 70% or higher and lower than 90%),0 (Herbicidal ratio of 5% or lower (almost no effect)),0 (Herbicidal ratio of 5% or lower (almost no effect)),0 (Herbicidal ratio of 5% or lower (almost no effect)),0 (Herbicidal ratio of 5% or lower (almost no effect)),"M: Abutilon theophrasti, herbicidal effect grade (Abutilon theophrasti; 320 g/ha): 0 (Herbicidal ratio of 5% or lower (almost no effect)); Q: Galium spurium, herbicidal effect grade (Galium spurium; 320 g/ha): 0 (Herbicidal ratio of 5% or lower (almost no effect)); c: corn, effect grade on crop (corn [5]): 0 (Herbicidal ratio of 5% or lower (almost no effect)); g: rapeseed, effect grade on crop (rapeseed): 0 (Herbicidal ratio of 5% or lower (almost no effect))"
CCC(CCC1CC(O)=C(c2c(C)cc(C)cc2C)C1=O)=NOC (mixture of isomers) [4-001],0 (Herbicidal ratio of 5% or lower (almost no effect)),0 (Herbicidal ratio of 5% or lower (almost no effect)),0 (Herbicidal ratio of 5% or lower (almost no effect)),0 (Herbicidal ratio of 5% or lower (almost no effect)),2 (Herbicidal ratio of 20% or higher and lower than 40%),0 (Herbicidal ratio of 5% or lower (almost no effect)),0 (Herbicidal ratio of 5% or lower (almost no effect)),5 (Herbicidal ratio of 90% or more (almost completely withered)),0 (Herbicidal ratio of 5% or lower (almost no effect)),0 (Herbicidal ratio of 5% or lower (almost no effect)),0 (Herbicidal ratio of 5% or lower (almost no effect)),1 (Herbicidal ratio of 5% or higher and lower than 20%),5 (Herbicidal ratio of 90% or more (almost completely withered)),1 (Herbicidal ratio of 5% or higher and lower than 20%),0 (Herbicidal ratio of 5% or lower (almost no effect)),4 (Herbicidal ratio of 70% or higher and lower than 90%),–,–,–,–,–
CON=C(C)CC1CC(OS(=O)(=O)C2CC2)=C(c2c(C)cc(C)cc2C)C1=O (stereo not shown) [1-143],1 (Herbicidal ratio of 5% or higher and lower than 20%),4 (Herbicidal ratio of 70% or higher and lower than 90%),4 (Herbicidal ratio of 70% or higher and lower than 90%),3 (Herbicidal ratio of 40% or higher and lower than 70%),–,–,–,–,–,–,–,–,–,–,–,–,1 (Herbicidal ratio of 5% or higher and lower than 20%),0 (Herbicidal ratio of 5% or lower (almost no effect)),2 (Herbicidal ratio of 20% or higher and lower than 40%),5 (Herbicidal ratio of 90% or more (almost completely withered)),"M: Abutilon theophrasti, herbicidal effect grade (Abutilon theophrasti; 320 g/ha): 0 (Herbicidal ratio of 5% or lower (almost no effect)); Q: Galium spurium, herbicidal effect grade (Galium spurium; 320 g/ha): 0 (Herbicidal ratio of 5% or lower (almost no effect)); c: corn, effect grade on crop (corn [5]): 0 (Herbicidal ratio of 5% or lower (almost no effect)); g: rapeseed, effect grade on crop (rapeseed): 0 (Herbicidal ratio of 5% or lower (almost no effect)); K: Lolium multiflorum Lam., herbicidal effect (criteria 0-5) (Lolium multiflorum Lam.): 5 (Herbicidal ratio of 90% or more (almost completely withered)); c: corn, effect on crop (criteria 0-5) (corn [6]): 3 (Herbicidal ratio of 40% or higher and lower than 70%); d: soybean, effect on crop (criteria 0-5) (soybean): 1 (Herbicidal ratio of 5% or higher and lower than 20%); b: directly sowed rice plant, effect on crop (criteria 0-5) (rice plant): 2 (Herbicidal ratio of 20% or higher and lower than 40%)"
